Source: BigSolDB 2.1

c1ccc(-c2ccc(C(c3ccccc3)n3ccnc3)cc2)cc1 (stereo unspecified)
Conditions	solubility (mole fraction)
in DMF, 283.17 K	0.0149
in DMF, 288.13 K	0.0177
in DMF, 293.15 K	0.0208
in DMF, 298.18 K	0.0245
in DMF, 303.14 K	0.029
in DMF, 308.09 K	0.0341
in DMF, 313.25 K	0.0403
in DMF, 318.13 K	0.0482
in DMF, 323.18 K	0.0565
in acetonitrile, 283.24 K	0.00109
in acetonitrile, 288.17 K	0.0014
in acetonitrile, 293.15 K	0.00176
in acetonitrile, 298.14 K	0.00221
in acetonitrile, 303.08 K	0.00277
in acetonitrile, 308.13 K	0.00347
in acetonitrile, 313.16 K	0.00439
in acetonitrile, 318.14 K	0.00541
in acetonitrile, 323.11 K	0.00682
in ethanol, 283.15 K	0.0028
in ethanol, 288.18 K	0.00342
in ethanol, 293.13 K	0.00407
in ethanol, 298.15 K	0.00512
in ethanol, 303.17 K	0.0064
in ethanol, 308.14 K	0.00782
in ethanol, 313.15 K	0.00965
in ethanol, 318.2 K	0.0122
in ethanol, 323.14 K	0.0151
in ethyl acetate, 283.16 K	0.00238
in ethyl acetate, 288.14 K	0.00305
in ethyl acetate, 293.17 K	0.00385
in ethyl acetate, 298.13 K	0.00471
in ethyl acetate, 303.18 K	0.00579
in ethyl acetate, 308.12 K	0.00724
in ethyl acetate, 313.1 K	0.00892
in ethyl acetate, 318.13 K	0.0113
in ethyl acetate, 323.1 K	0.0139
in isobutanol, 283.14 K	0.00308
in isobutanol, 288.17 K	0.0041
in isobutanol, 293.13 K	0.00528
in isobutanol, 298.12 K	0.00659
in isobutanol, 303.16 K	0.00865
in isobutanol, 308.15 K	0.0114
in isobutanol, 313.19 K	0.0148
in isobutanol, 318.14 K	0.0197
in isobutanol, 323.16 K	0.0256
in isopentanol, 283.13 K	0.00402
in isopentanol, 288.17 K	0.00512
in isopentanol, 293.07 K	0.00652
in isopentanol, 298.14 K	0.00831
in isopentanol, 303.17 K	0.0105
in isopentanol, 308.13 K	0.0133
in isopentanol, 313.18 K	0.0171
in isopentanol, 318.15 K	0.0216
in isopentanol, 323.24 K	0.0281
in isopropanol, 283.16 K	0.00137
in isopropanol, 288.14 K	0.00173
in isopropanol, 293.15 K	0.0022
in isopropanol, 298.18 K	0.00285
in isopropanol, 303.17 K	0.00362
in isopropanol, 308.13 K	0.00472
in isopropanol, 313.16 K	0.00605
in isopropanol, 318.1 K	0.00802
in isopropanol, 323.14 K	0.0105
in methyl acetate, 283.12 K	0.00263
in methyl acetate, 288.14 K	0.00334
in methyl acetate, 293.15 K	0.00413
in methyl acetate, 298.19 K	0.00509
in methyl acetate, 303.17 K	0.00618
in methyl acetate, 308.14 K	0.0076
in methyl acetate, 313.18 K	0.00926
in methyl acetate, 318.15 K	0.0111
in methyl acetate, 323.13 K	0.013
in n-butanol, 283.15 K	0.00386
in n-butanol, 288.19 K	0.00509
in n-butanol, 293.16 K	0.00645
in n-butanol, 298.14 K	0.00808
in n-butanol, 303.15 K	0.01
in n-butanol, 308.23 K	0.0132
in n-butanol, 313.11 K	0.0163
in n-butanol, 318.18 K	0.0203
in n-butanol, 323.14 K	0.0257
in n-butyl acetate, 283.13 K	0.00191
in n-butyl acetate, 288.16 K	0.00233
in n-butyl acetate, 293.14 K	0.00285
in n-butyl acetate, 298.19 K	0.00345
in n-butyl acetate, 303.15 K	0.00434
in n-butyl acetate, 308.18 K	0.00527
in n-butyl acetate, 313.14 K	0.00676
in n-butyl acetate, 318.13 K	0.00835
in n-butyl acetate, 323.15 K	0.0109
in n-pentanol, 283.1 K	0.00445
in n-pentanol, 288.13 K	0.00581
in n-pentanol, 293.15 K	0.00739
in n-pentanol, 298.19 K	0.00941
in n-pentanol, 303.16 K	0.0117
in n-pentanol, 308.14 K	0.0149
in n-pentanol, 313.17 K	0.0184
in n-pentanol, 318.16 K	0.0234
in n-pentanol, 323.12 K	0.029
in n-propanol, 283.12 K	0.00381
in n-propanol, 288.14 K	0.00458
in n-propanol, 293.15 K	0.00585
in n-propanol, 298.18 K	0.00719
in n-propanol, 303.16 K	0.00909
in n-propanol, 308.21 K	0.0115
in n-propanol, 313.16 K	0.0143
in n-propanol, 318.19 K	0.0172
in n-propanol, 323.17 K	0.0211
in n-propyl acetate, 283.15 K	0.00215
in n-propyl acetate, 288.16 K	0.00261
in n-propyl acetate, 293.09 K	0.00342
in n-propyl acetate, 298.14 K	0.00433
in n-propyl acetate, 303.15 K	0.00541
in n-propyl acetate, 308.17 K	0.00683
in n-propyl acetate, 313.11 K	0.0087
in n-propyl acetate, 318.16 K	0.0106
in n-propyl acetate, 323.1 K	0.0131
in sec-butanol, 283.13 K	0.00212
in sec-butanol, 288.16 K	0.00286
in sec-butanol, 293.14 K	0.0037
in sec-butanol, 298.17 K	0.00503
in sec-butanol, 303.15 K	0.00647
in sec-butanol, 308.12 K	0.00841
in sec-butanol, 313.19 K	0.011
in sec-butanol, 318.16 K	0.0145
in sec-butanol, 323.15 K	0.0183
